Measurements: patent US20200405752A1, “ANTITUMOR AGENT, ANTITUMOR EFFECT ENHANCER, AND ANTITUMOR KIT” (FUJIFILM Corporation, priority 2018, published 2020)
One block for each compound: values may come before it.

How the values were obtained:
[1] = system: human ovarian cancer cell line SK-OV-3; experiment: Cell viability (CellTiter Glo) of SK-OV-3 in combination with cisplatin or carboplatin; assay type: cell-based; settings: for viability at 0.001 µM / viability at 0.003 µM / viability at 0.01 µM / viability at 0.03 µM / viability at 0.1 µM / viability at 0.3 µM / viability at 1 µM / viability at 3 µM / viability at 10 µM / IC50: Homo sapiens; for viability at 0.001 µM / viability at 0.003 µM / viability at 0.01 µM / viability at 0.03 µM / viability at 0.1 µM / viability at 0.3 µM / viability at 1 µM / viability at 3 µM / viability at 10 µM: SK-OV-3, 72 h, 3 days; for viability at 0.001 µM: test substance 1 nM; for viability at 0.003 µM: test substance 3 nM; for viability at 0.01 µM: test substance 10 nM; for viability at 0.03 µM: test substance 30 nM; for viability at 0.1 µM: test substance 100 nM; for viability at 0.3 µM: test substance 300 nM; for viability at 1 µM: test substance 1000 nM; for viability at 3 µM: test substance 3000 nM; for viability at 10 µM: test substance 10000 nM; for IC50: SK-OV-3, SK-OV-3; for CI: SK-OV-3 Cell
From the text: (§1) On the combinational effect of the embodiment of the invention, the results of evaluation using a combination index (CI) which is a quantitative index of the combinational effect are shown. The CI can be calculated by the following equation according to Cancer Research, 2010, Vol. 70, pp. 440 to 446.
(§2) That is, in a case where the drugs to be used in combination are drug 1 and drug 2, the CI at a certain drug concentration is
(§3) CI={(cell viability in case of using drug 1 and drug 2 in combination)/100}/{[(cell viability in case of using drug 1)/100]×[(cell viability in case of using drug 2)/100]}
(§4) Evaluation of antitumor activity against human ovarian cancer cell lines ES-2 and SK-OV-3 in combination with cisplatin and carboplatin
(§5) Furthermore, the antitumor activity against human ovarian cancer-derived cell lines ES-2 and SK-OV-3 in combination with cisplatin and carboplatin was evaluated in the same manner as in Test Example 1.
(§6) Gemcitabine, cisplatin, carboplatin, and methanesulfonate of Compound A were used as test substances.
(§7) Gemcitabine hydrochloride (manufactured by Plantex Co., Ltd.) dissolved in DMSO was used as gemcitabine. Cisplatin (Cat. #039-20091, manufactured by Wako Pure Chemical Industries, Ltd.) and carboplatin (Cat. #C2043, manufactured by Tokyo Chemical Industry Co., Ltd.), each of which dissolved in McCoy's 5a medium (Cat. #16600-082, manufactured by Thermo Fisher Scientific Inc.) supplemented with 1% serum (Cat. #10437-028, manufactured by Thermo Fisher Scientific Inc.), were used as cisplatin and carboplatin, respectively.
(§8) Human ovarian cancer cell line ES-2 and SK-OV-3 cells were subcultured in 10% serum-supplemented medium. During this test, all cell cultures were carried out in a CO2 incubator (set to 37° C. and 5% CO2, saturated with water vapor). ES-2 cells were diluted with 10% serum-supplemented medium to a cell density of 10000 cells/well/100 μL and SK-OV-3 cells were diluted with 10% serum-supplemented medium to a cell density of 15000 cells/well/100 μL, and then seeded on a 96-well plate. On the next day, the culture supernatant of each well was discarded, followed by washing twice with 150 μL of 1% serum-supplemented medium, and 100 μL of 1% serum-supplemented medium was added thereto, followed by culturing for 3 days.
The methanesulfonate of Compound A and gemcitabine were dissolved in DMSO to prepare 100 mmol/L DMSO solutions thereof. The thus-prepared DMSO solutions were diluted sequentially with DMSO to prepare DMSO solutions having a final treatment concentration of 1000-fold dilution. […] […] Compound A and gemcitabine were used with a maximum concentration of 10 μmol/L at a common ratio of 1/3 and 9 concentrations in combination with cisplatin or Carboplatin.
(§9) 20 μL of Compound A or gemcitabine diluted with the cisplatin solution (60 μmol/L) or the Carboplatin solution (600 μmol/L) was added to each well. In addition, a group in which only a solvent containing no drug was added to wells in which cells were seeded (positive control), and a group in which only a solvent containing no drug was added to wells containing only a medium (negative control) were provided. All groups were set to n=3 well.
The cells were cultured for 3 days after the addition of the drug, and the cell viability was evaluated using a CellTiter Glo (registered trademark) Reagent (Cat. #G7570, manufactured by Promega Corporation) with the intracellular ATP level as an index. The concentration that inhibits cell viability by 50% (IC50 value) was calculated using XLFit software Ver.3 (registered trademark, manufactured by CTC Laboratory Systems Corporation).
The cell viability of each well was determined with the luminescence signal level of the negative control being 0% cell viability and the luminescence signal level of the positive control being 100% cell viability. The average value and standard deviation of the cell viability of each treatment group were calculated to prepare Tables 3 to 6.

[2] = system: human ovarian cancer cell line ES-2; experiment: Cell viability (CellTiter Glo) of ES-2 in combination with cisplatin or carboplatin; assay type: cell-based; settings: for CI: ES-2 Cell; for viability at 0.001 µM / viability at 0.003 µM / viability at 0.01 µM / viability at 0.03 µM / viability at 0.1 µM / viability at 0.3 µM / viability at 1 µM / viability at 3 µM / viability at 10 µM / IC50: Homo sapiens; for viability at 0.001 µM / viability at 0.003 µM / viability at 0.01 µM / viability at 0.03 µM / viability at 0.1 µM / viability at 0.3 µM / viability at 1 µM / viability at 3 µM / viability at 10 µM: 72 h, 3 days; for viability at 0.001 µM: test substance 1 nM; for viability at 0.003 µM: test substance 3 nM; for viability at 0.01 µM: test substance 10 nM; for viability at 0.03 µM: test substance 30 nM; for viability at 0.1 µM: test substance 100 nM; for viability at 0.3 µM: test substance 300 nM; for viability at 1 µM: test substance 1000 nM; for viability at 3 µM: test substance 3000 nM; for viability at 10 µM: test substance 10000 nM
From the text: as §1, §2, §3, §4, §5, §6, §7, §8
The methanesulfonate of Compound A and gemcitabine were dissolved in DMSO to prepare 100 mmol/L DMSO solutions thereof. The thus-prepared DMSO solutions were diluted sequentially with DMSO to prepare DMSO solutions having a final treatment concentration of 1000-fold dilution. Cisplatin and carboplatin were dissolved in 1% serum-supplemented medium to prepare a cisplatin solution 60 μmol/L and a carboplatin solution 600 μmol/L, respectively. The DMSO diluted solutions of Compound A and gemcitabine were diluted with the cisplatin solution (60 μmol/L) or the Carboplatin solution (600 μmol/L) to prepare treatment liquids having a final treatment concentration of 6-fold dilution. Compound A and gemcitabine were used with a maximum concentration of 10 μmol/L at a common ratio of 1/3 and 9 concentrations in combination with cisplatin or Carboplatin.
as §9
The cells were cultured for 3 days after the addition of the drug, and the cell viability was evaluated using a CellTiter Glo (registered trademark) Reagent (Cat. #G7570, manufactured by Promega Corporation) with the intracellular ATP level as an index. […]

[3] = SK-OV-3, with carboplatin 30 μmol/L
[4] = SK-OV-3, with cisplatin 10 μmol/L
[5] = used in combination with cisplatin (10 μmol/L, Table 4)
[6] = ES-2, used in combination with cisplatin (10 μmol/L, Table 3)
[7] = ES-2, with carboplatin 100 μmol/L
[8] = ES-2, used in combination with carboplatin (100 μmol/L, Table 6)

IC50 [1, 5]: 3.8 µM
IC50 value ([1]; SK-OV-3, used in combination with carboplatin (30 μmol/L, Table 5)): could not be calculated
IC50 value [2, 6]: could not be calculated
IC50 [2, 8]: ≥ 10 µM
Compound: Nc1ccn([C@@H]2O[C@H](CO)[C@@H](O)C2(F)F)c(=O)n1 [Gemcitabine]
viability at 0.001 µM [1, 3]: 90%
viability at 0.003 µM [1, 3]: 90%
viability at 0.01 µM [1, 3]: 88%
viability at 0.03 µM [1, 3]: 86%
viability at 0.1 µM [1, 3]: 83%
viability at 0.3 µM [1, 3]: 82%
viability at 1 µM [1, 3]: 81%
viability at 3 µM [1, 3]: 80%
viability at 10 µM [1, 3]: 76%
viability at 0.001 µM [1, 4]: 82%
viability at 0.003 µM [1, 4]: 84%
viability at 0.01 µM [1, 4]: 84%
viability at 0.03 µM [1, 4]: 83%
viability at 0.1 µM [1, 4]: 83%
viability at 0.3 µM [1, 4]: 83%
viability at 1 µM [1, 4]: 79%
viability at 3 µM [1, 4]: 59%
viability at 10 µM [1, 4]: 30%
CI ([1]; combination with Carboplatin): 1.0
CI ([1]; combination with Cisplatin): 1.1
CI ([2]; combination with Carboplatin): 0.9
CI ([2]; combination with Cisplatin): 1.1
viability at 0.001 µM [2, 7]: 76%
viability at 0.003 µM [2, 7]: 74%
viability at 0.01 µM [2, 7]: 71%
viability at 0.03 µM [2, 7]: 71%
viability at 0.1 µM [2, 7]: 72%
viability at 0.3 µM [2, 7]: 71%
viability at 1 µM [2, 7]: 69%
viability at 3 µM [2, 7]: 62%
viability at 10 µM [2, 7]: 48%
viability at 0.001 µM ([2]; ES-2, with cisplatin 10 μmol/L): 74%
viability at 0.003 µM ([2]; ES-2, with cisplatin 10 μmol/L): 78%
viability at 0.01 µM ([2]; ES-2, with cisplatin 10 μmol/L): 78%
viability at 0.03 µM ([2]; ES-2, with cisplatin 10 μmol/L): 79%
viability at 0.1 µM ([2]; ES-2, with cisplatin 10 μmol/L): 79%
viability at 0.3 µM ([2]; ES-2, with cisplatin 10 μmol/L): 79%
viability at 1 µM ([2]; ES-2, with cisplatin 10 μmol/L): 74%
viability at 3 µM ([2]; ES-2, with cisplatin 10 μmol/L): 65%
viability at 10 µM ([2]; ES-2, with cisplatin 10 μmol/L): 50%

IC50 ([1]; used in combination with carboplatin (30 μmol/L, Table 5)): 0.676 µM
IC50 [1, 5]: 0.0822 µM
IC50 [2, 8]: 0.046 µM
IC50 [2, 6]: 0.0632 µM
Compound: Nc1ccn([C@@H]2S[C@H](CO)[C@@H](O)[C@@H]2F)c(=O)n1 [Compound A, 1-(2-deoxy-2-fluoro-4-thio-β-D-arabinofuranosyl)cytosine]
viability at 0.001 µM [1, 3]: 90%
viability at 0.003 µM [1, 3]: 88%
viability at 0.01 µM [1, 3]: 84%
viability at 0.03 µM [1, 3]: 82%
viability at 0.1 µM [1, 3]: 80%
viability at 0.3 µM [1, 3]: 73%
viability at 1 µM [1, 3]: 41%
viability at 3 µM [1, 3]: 20%
viability at 10 µM [1, 3]: 17%
viability at 0.001 µM [1, 4]: 83%
viability at 0.003 µM [1, 4]: 82%
viability at 0.01 µM [1, 4]: 81%
viability at 0.03 µM [1, 4]: 76%
viability at 0.1 µM [1, 4]: 43%
viability at 0.3 µM [1, 4]: 14%
viability at 1 µM [1, 4]: 11%
viability at 3 µM [1, 4]: 10%
viability at 10 µM [1, 4]: 10%
CI ([1]; combination with Carboplatin): 0.3
CI ([1]; combination with Cisplatin): 0.2
CI ([2]; combination with Carboplatin): 0.4
CI ([2]; combination with Cisplatin): 0.3
viability at 0.001 µM [2, 7]: 73%
viability at 0.003 µM [2, 7]: 70%
viability at 0.01 µM [2, 7]: 69%
viability at 0.03 µM [2, 7]: 57%
viability at 0.1 µM [2, 7]: 36%
viability at 0.3 µM [2, 7]: 28%
viability at 1 µM [2, 7]: 24%
viability at 3 µM [2, 7]: 22%
viability at 10 µM [2, 7]: 21%
viability at 0.001 µM ([2]; ES-2, with cisplatin 10 μmol/L): 78%
viability at 0.003 µM ([2]; ES-2, with cisplatin 10 μmol/L): 78%
viability at 0.01 µM ([2]; ES-2, with cisplatin 10 μmol/L): 77%
viability at 0.03 µM ([2]; ES-2, with cisplatin 10 μmol/L): 68%
viability at 0.1 µM ([2]; ES-2, with cisplatin 10 μmol/L): 37%
viability at 0.3 µM ([2]; ES-2, with cisplatin 10 μmol/L): 26%
viability at 1 µM ([2]; ES-2, with cisplatin 10 μmol/L): 23%
viability at 3 µM ([2]; ES-2, with cisplatin 10 μmol/L): 23%
viability at 10 µM ([2]; ES-2, with cisplatin 10 μmol/L): 21%
